Series [1] relates to Trypanosoma brucei brucei. Nature of the series: Antitrypanosomal activity against Trypanosoma brucei brucei assessed as parasite viability at 20 uM relative to control. It counts as functional.
In series [2] the test system is Mycobacterium tuberculosis. Nature of the series: Antimycobacterial activity against Mycobacterium tuberculosis H37Rv assessed as inhibition of bacterial growth by measuring calculated MIC90 measured after 14 days by green fluorescent protein based microplate assay. It counts as functional. The following applies: 336 h.
The subject of series [3] is Mycobacterium tuberculosis. Nature of the series: Antimycobacterial activity against Mycobacterium tuberculosis H37Rv assessed as inhibition of bacterial growth by measuring visual MIC90 measured after 14 days by green fluorescent protein based microplate assay. It counts as functional. The following applies: 336 h.
The nature of series [4]: Cytotoxicity against human HeLa cells assessed as cell viability at 20 uM incubated for 24 hrs by resazurin dye base fluorescence analysis relative to control. It counts as cell-based. The following applies: read-out: Activity. Background: The colour change of resazurin is a common sign of viable cells or microbes.
The test system of series [5] is Plasmodium falciparum. The series is described as follows: Antimalarial activity against Plasmodium falciparum 3D7 infected in human erythrocytes assessed as parasite viability at 20 uM incubated for 48 hrs by parasite LDH release based colorimetric assay relative to control. The format is functional. For orientation: LDH leaks from cells whose membrane has failed.

The target of series [6] is Human immunodeficiency virus type 1 protease (Human immunodeficiency virus 1) (UniProt Q72874). Nature of the series: Inhibition of HIV-1 protease at 20 uM relative to control.
For series [7], the system named is HeLa. Nature of the series: Cytotoxicity against human HeLa cells assessed as inhibition of cell viability incubated for 24 hrs by resazurin dye based fluorescence analysis.
Series [8] deals with Trypanosoma brucei brucei. Nature of the series: Antitrypanosomal activity against Trypanosoma brucei brucei assessed as inhibition of parasite viability. The format is functional, organism-based.
The target of series [9] is Human immunodeficiency virus type 1 integrase (Human immunodeficiency virus 1, UniProt Q7ZJM1). The series is described as follows: Inhibition of HIV-1 integrase.

The MIC90 is an inhibitory concentration at the 90% level, which refers to growth in some studies and to a panel of isolates in others. In general, inhibition refers to how much of the control response was suppressed. Read a high inhibition as a response far below the control. Usually IC50 stands for the point on the concentration scale where inhibition reaches its midpoint.

≈ marks a conversion by molar mass, not a printed value.

Sequence of Human immunodeficiency virus type 1 integrase (Q7ZJM1 whole entry): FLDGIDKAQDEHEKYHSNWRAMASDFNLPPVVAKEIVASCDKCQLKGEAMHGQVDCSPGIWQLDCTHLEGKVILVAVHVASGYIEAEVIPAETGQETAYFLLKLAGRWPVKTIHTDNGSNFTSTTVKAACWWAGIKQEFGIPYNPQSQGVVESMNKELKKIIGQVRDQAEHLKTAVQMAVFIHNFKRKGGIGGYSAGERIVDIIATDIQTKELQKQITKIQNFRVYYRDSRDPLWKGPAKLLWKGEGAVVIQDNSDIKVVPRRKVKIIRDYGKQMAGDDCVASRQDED

Take `COc1ccc2oc(=O)c(/C(C)=N/NC(=O)C(O)C(O)C(=O)N/N=C(\C)c3c(O)c4cc(OC)ccc4oc3=O)c(O)c2c1` (racemic): the Activity in series [1] and in series [5] was 100% each time. Moreover, the MIC90 in series [2] and in [3] was above 125 µM in each case. For the same compound, in series [4], the viability at 24 h, 20 µM was 84.6%. Also, the inhibition in series [6] stood at 0%.

Turning to `CO[C@H]1/C=C/O[C@@]2(C)Oc3c(C)c(O)c4c(O)c(c(/C=N/N5CCN(C)CC5)c(O)c4c3C2=O)NC(=O)/C(C)=C\C=C\[C@H](C)[C@H](O)[C@@H](C)[C@@H](O)[C@@H](C)[C@H](OC(C)=O)[C@@H]1C` [RIFAMPIN], the MIC90 in series [2] was 0.007 µM (≈ 0.00576 µg/mL); in series [3], 0.019 µM (≈ 0.0156 µg/mL).

In the case of `C/C(=N\NC(=O)C(O)C(O)C(=O)N/N=C(\C)c1c(O)c2cc(C)ccc2oc1=O)c1c(O)c2cc(C)ccc2oc1=O` (racemic), the Activity in series [1] and in series [5] was 100% throughout. For the same compound, the MIC90 in series [2] and in [3] was above 125 µM throughout. Further, the viability at 24 h, 20 µM in [4] stood at 85.3%. In addition, the inhibition in series [6] was 8.3%.

Regarding `CC[C@H]1CN2CCc3cc(OC)c(OC)cc3[C@@H]2C[C@@H]1C[C@H]1NCCc2cc(OC)c(OC)cc21` [EMETINE], the IC50 in [7] amounted to 13 nM.

In the case of `C/C(=N\NC(=O)C(O)C(O)C(=O)N/N=C(\C)c1c(O)c2cc(Cl)ccc2oc1=O)c1c(O)c2cc(Cl)ccc2oc1=O` (racemic), the Activity in series [1] turned out to be 44.6%; in series [5], 93.8%. The MIC90 is 54.2 µM (≈ 33.6 µg/mL) in series [2] and 31.2 µM (≈ 19.4 µg/mL) in [3]. In addition, the viability at 24 h, 20 µM in series [4] turned out to be 100%. The compound also yielded an inhibition in series [6] of 0%.

On to `C/C(=N\NC(=O)C(O)C(O)C(=O)N/N=C(\C)c1c(O)c2c(ccc3ccccc32)oc1=O)c1c(O)c2c(ccc3ccccc32)oc1=O` (racemic), for which the Activity in [1] and in series [5] was 100% each time. Moreover, the MIC90 in [2] is 29.5 µM (≈ 19.2 µg/mL); in series [3] it was 31.2 µM (≈ 20.3 µg/mL). In addition, the viability at 24 h, 20 µM in [4] came out at 98.1%. This compound also gave an inhibition in [6] of 0%.

Regarding `C/C(=N\NC(=O)C(O)C(O)C(=O)N/N=C(\C)c1c(O)c2cc(F)ccc2oc1=O)c1c(O)c2cc(F)ccc2oc1=O` (racemic), the Activity in [1] was 32.8%; in [5] it was 92.8%. Moreover, the MIC90 in series [2] and in series [3] was above 125 µM throughout. In addition, the viability at 24 h, 20 µM in [4] was determined as 84.6%. The inhibition in series [6] is 0%.

As for `N=C(N)c1ccc(OCCCCCOc2ccc(C(=N)N)cc2)cc1` [PENTAMIDINE], the IC50 in [8] was determined as 39 nM.

As for `C/C(=N\NC(=O)C(O)C(O)C(=O)N/N=C(\C)c1c(O)c2cc(Br)ccc2oc1=O)c1c(O)c2cc(Br)ccc2oc1=O` (racemic), the Activity in series [1] and in series [5] was 100% throughout. Besides, the MIC90 is 18.9 µM (≈ 13.4 µg/mL) in series [2] and 15.6 µM (≈ 11.1 µg/mL) in series [3]. For the same compound, the viability at 24 h, 20 µM in [4] was 100%. In [6], this compound gave an inhibition of 0%.

For `C/C(=N\NC(=O)C(O)C(O)C(=O)N/N=C(\C)c1c(O)c2ccccc2oc1=O)c1c(O)c2ccccc2oc1=O` (racemic), the Activity in [1] amounted to 42.7%; in [5], 90.7%. Also, the MIC90 in [2] and in series [3] was above 125 µM in each case. Besides, the viability at 24 h, 20 µM in [4] was found to be 78.4%. The same compound displayed an IC50 in series [9] of 3500 nM. In [6], the inhibition is 0%.

These data come from ChEMBL document CHEMBL4627252, “Synthesis and biological evaluation of bis-N2,N2'-(4-hydroxycoumarin-3-yl)ethylidene]-2,3-dihydroxysuccinodihydrazides” (Bioorg Med Chem Lett, 2020).
